For six compounds, IC50, MIC and inhibition results are on record in ChEMBL document CHEMBL4819085, “Dipyridyl-substituted thiosemicarbazone as a potent broad-spectrum inhibitor of metallo-β-lactamases” (Bioorg Med Chem, 2021).

The nature of experiment [1]: Inhibition of bacterial IMP-1 using meropenem as substrate incubated for 1 hr by spectrometry analysis. The arrangement: species or system Bacteria.
Experiment [2] in a line: Inhibition of bacterial L1 using meropenem as substrate incubated for 1 hr by spectrometry analysis. More on the design: species or system Bacteria.
Experiment [3] in a line: Inhibition of bacterial NDM-1 expressed in Escherichia coli BL21 (DE3) using meropenem as substrate incubated for 1 hr by spectrometry analysis. More on the design: species or system Bacteria.
Experiment [4] can be described thus: Inhibition of bacterial ImiS expressed in Escherichia coli BL21 (DE3) using meropenem as substrate incubated for 1 hr by spectrometry analysis. The arrangement: species or system Bacteria.
Experiment [5] is described as follows: Inhibition of bacterial VIM-2 expressed in Escherichia coli BL21 (DE3) using meropenem as substrate incubated for 1 hr by spectrometry analysis. More on the design: species or system Bacteria.
In experiment [6] the test system is Escherichia coli. The experiment in a line: Antibacterial activity against Escherichia coli 08 assessed as reduction in bacterial growth incubated for 24 hrs by broth microdilution method. The experiment is classed as functional.
The next experiment has as its system Pseudomonas aeruginosa. The experiment is described as follows: Antibacterial activity against Carbapenem-resistant Pseudomonas aeruginosa assessed as reduction in bacterial growth incubated for 24 hrs by broth microdilution method. The experiment is classed as functional.
Experiment [7] concerns Escherichia coli. The experiment is described as follows: Antibacterial activity against Escherichia coli 04 assessed as reduction in bacterial growth incubated for 24 hrs by broth microdilution method. The experiment is classed as functional. For orientation: Dilution methods test growth across graded concentrations, often in twofold steps.
Experiment [8] relates to Escherichia coli. The experiment in a line: Antibacterial activity against Escherichia coli 01 assessed as reduction in bacterial growth incubated for 24 hrs by broth microdilution method. The experiment is classed as functional.
The test system of experiment [9] is Klebsiella pneumoniae. The experiment in a line: Antibacterial activity against Klebsiella pneumoniae assessed as reduction in bacterial growth incubated for 24 hrs by broth microdilution method. The class given is functional.
A further experiment has as its system Staphylococcus aureus. The experiment is described as follows: Antibacterial activity against methicillin-resistant Staphylococcus aureus assessed as reduction in bacterial growth incubated for 24 hrs by broth microdilution method. The experiment is classed as functional.
The test system of experiment [10] is Escherichia coli. The experiment in a line: Antibacterial activity against Escherichia coli 24 assessed as reduction in bacterial growth incubated for 24 hrs by broth microdilution method. The experiment is classed as functional.
For another experiment, the system named is Enterococcus faecium. The experiment in a line: Antibacterial activity against vancomycin-resistant Enterococcus faecium assessed as reduction in bacterial growth incubated for 24 hrs by broth microdilution method. The experiment is classed as functional.
For experiment [11], the system named is Escherichia coli. The experiment in a line: Antibacterial activity against Escherichia coli 06 assessed as reduction in bacterial growth incubated for 24 hrs by broth microdilution method. The class given is functional.
Experiment [12] concerns the target Metallo-beta-lactamase (Escherichia coli) (UniProt Q5U7L7). The experiment in a line: Inhibition of Escherichia coli VIM-2 assessed as reduction in bacterial growth incubated for 24 hrs by broth microdilution method.
In experiment [13] the test system is Klebsiella pneumoniae. The experiment in a line: In vivo antibacterial activity against Klebsiella pneumoniae producing NDM-1 infected in mouse assessed as reduction in bacterial load in spleen at 10 mg/kg, ip. The experiment is classed as functional, organism-based.
In the next experiment the test system is Bacteria. The experiment is described as follows: Inhibition of bacterial NDM-1 expressed in Escherichia coli BL21 (DE3) at 20 uM using meropenem as substrate incubated for 1 hr by spectrometry analysis relative to control.
Experiment [14] deals with Escherichia coli. The experiment in a line: Inhibition of Escherichia coli ImiS assessed as reduction in bacterial growth incubated for 24 hrs by broth microdilution method.
In experiment [15] the test system is Escherichia coli. The experiment is described as follows: Inhibition of Escherichia coli IMP-1 assessed as reduction in bacterial growth incubated for 24 hrs by broth microdilution method.
In experiment [16] the test system is Klebsiella pneumoniae. The experiment is described as follows: In vivo antibacterial activity against Klebsiella pneumoniae producing NDM-1 infected in mouse assessed as reduction in bacterial load in liver at 10 mg/kg, ip. The class given is functional, organism-based.
Experiment [17] concerns Escherichia coli. The experiment in a line: Inhibition of Escherichia coli L1 assessed as reduction in bacterial growth incubated for 24 hrs by broth microdilution method.
In experiment [18] the test system is Escherichia coli. The experiment is described as follows: Inhibition of Escherichia coli NDM-1 assessed as reduction in bacterial growth incubated for 24 hrs by broth microdilution method.

Usually IC50 stands for the concentration needed to halve the response being measured. Low readings indicate greater potency, high ones weaker potency. As a reminder, the inhibition is the change of the read-out against control, counted positive when it falls.

Each structure is given as a SMILES string. Converted amounts (≈) assume the structure as drawn. The source made the active and inactive calls. The rule behind the calls is not given here.

On to `O=C(O)C(=O)CBr` [BROMOPYRUVATE], for which the half-inhibitory concentration (IC50) was 28.9 µM in experiment [1]; over 40 µM in experiment [2]; 2.57 µM in [3]; over 40 µM in experiment [4]; 18.7 µM in [5].

Take `CC1(C)S[C@@H]2[C@H](NC(=O)[C@H](N)c3ccccc3)C(=O)N2[C@H]1C(=O)O` [AMPICILLIN]: the MIC in the experiment with Escherichia coli [6] was over 16000 µg/mL; in the experiment with Pseudomonas aeruginosa it was over 16000 µg/mL; with Escherichia coli [7], over 16000 µg/mL; in the experiment on Escherichia coli [8] it was over 16000 µg/mL; in the experiment with Klebsiella pneumoniae [9], 8190 µg/mL (≈ 23.4 mM); in the experiment on Staphylococcus aureus, over 16000 µg/mL. Moreover, the MIC was 16000 µg/mL (≈ 45.8 mM) in the experiment with Escherichia coli [10], over 16000 µg/mL in the experiment on Enterococcus faecium and 8190 µg/mL (≈ 23.4 mM) with Escherichia coli [11].

With `CO/N=C(\C(=O)N[C@@H]1C(=O)N2C(C(=O)O)=C(CSc3nc(=O)c(O)nn3C)CS[C@H]12)c1csc(N)n1` [CEFTRIAXONE], the MIC was 16000 µg/mL (≈ 28.9 mM) in the experiment with Escherichia coli [6]; 64 µg/mL (≈ 0.115 mM) in the experiment with Pseudomonas aeruginosa; 16000 µg/mL (≈ 28.9 mM) with Escherichia coli [7]; 16000 µg/mL (≈ 28.9 mM) in the experiment with Escherichia coli [8]; 8190 µg/mL (≈ 14.8 mM) in the experiment with Klebsiella pneumoniae [9]; 4100 µg/mL (≈ 7.39 mM) in the experiment with Staphylococcus aureus. Moreover, the figures for the MIC in the experiment on Escherichia coli [10], in the experiment with Enterococcus faecium and in the experiment with Escherichia coli [11] were 16000 µg/mL (≈ 28.9 mM), 512 µg/mL (≈ 0.923 mM) and 16000 µg/mL (≈ 28.9 mM), respectively.

As for `CO/N=C(\C(=O)N[C@@H]1C(=O)N2C(C(=O)O)=C(COC(C)=O)CS[C@H]12)c1csc(N)n1` [CEFOTAXIME], the MIC with Escherichia coli [6] was 8190 µg/mL (≈ 18 mM); with Pseudomonas aeruginosa, over 16000 µg/mL; in the experiment with Escherichia coli [7] it was over 16000 µg/mL; with Escherichia coli [8] it was 16000 µg/mL (≈ 35.1 mM); in the experiment with Klebsiella pneumoniae [9], 16000 µg/mL (≈ 35.1 mM); in the experiment on Staphylococcus aureus, 1020 µg/mL (≈ 2.25 mM). Moreover, the MIC worked out at 16000 µg/mL (≈ 35.1 mM) in the experiment on Escherichia coli [10], 4100 µg/mL (≈ 8.99 mM) in the experiment with Enterococcus faecium and 8190 µg/mL (≈ 18 mM) with Escherichia coli [11].

Take `Cc1nnc(SCC2=C(C(=O)O)N3C(=O)[C@@H](NC(=O)Cn4cnnn4)[C@H]3SC2)s1` [CEFAZOLIN]: the MIC in the experiment with Escherichia coli [6] is 4100 µg/mL (≈ 9.01 mM); in the experiment on Pseudomonas aeruginosa, over 16000 µg/mL; with Escherichia coli [7] it was 4100 µg/mL (≈ 9.01 mM); in the experiment with Escherichia coli [8], 16000 µg/mL (≈ 35.2 mM); in the experiment on Klebsiella pneumoniae [9] it was 4100 µg/mL (≈ 9.01 mM); in the experiment on Staphylococcus aureus it was 4100 µg/mL (≈ 9.01 mM). The figures for the MIC in the experiment with Escherichia coli [10], in the experiment with Enterococcus faecium and in the experiment with Escherichia coli [11] were 4100 µg/mL (≈ 9.01 mM), 8130 µg/mL (≈ 17.9 mM) and 4100 µg/mL (≈ 9.01 mM), respectively.

Turning to `C[C@@H](O)[C@H]1C(=O)N2C(C(=O)O)=C(S[C@@H]3CN[C@H](C(=O)N(C)C)C3)[C@H](C)[C@H]12` [MEROPENEM], the MIC in experiment [12] came to 64 µg/mL (≈ 0.167 mM); with Escherichia coli [6], 128 µg/mL (≈ 0.334 mM); in the experiment on Pseudomonas aeruginosa, 8 µg/mL (≈ 0.0209 mM); in the experiment with Escherichia coli [14], 64 µg/mL (≈ 0.167 mM); in the experiment with Escherichia coli [15], 32 µg/mL (≈ 0.0834 mM); in the experiment with Escherichia coli [17], 128 µg/mL (≈ 0.334 mM). The MIC in the experiment with Escherichia coli [7] is 64 µg/mL (≈ 0.167 mM); in the experiment with Escherichia coli [8] it was 128 µg/mL (≈ 0.334 mM); in the experiment with Klebsiella pneumoniae [9] it was 256 µg/mL (≈ 0.668 mM); in the experiment on Staphylococcus aureus, 64 µg/mL (≈ 0.167 mM); with Escherichia coli [10], 128 µg/mL (≈ 0.334 mM); in the experiment on Enterococcus faecium, 256 µg/mL (≈ 0.668 mM). For the same compound, the MIC with Escherichia coli [18] and in the experiment with Escherichia coli [11] was 128 µg/mL (≈ 0.334 mM) each time. Further, the inhibition entry with Klebsiella pneumoniae [13] and in the experiment with Klebsiella pneumoniae [16] was “Active” throughout. Besides, in the experiment with Bacteria, the inhibition is over 90%.
